In patent US20220079995A1 (priority 2018, published 2022):

Experiments:
[1] = test system: human nucleus pulposus cells; format: cell-based; settings: ascorbic acid alone (170 μM in medium), culture 2 weeks; average ± SEM; control 4.33 ± 0.38
IGF1 mRNA = format: cell-based, human; settings: ascorbic acid alone; 1 week; GAPDH internal standard; average ± SEM
CSGALNACT1 mRNA = format: cell-based, human; settings: ascorbic acid alone; 1 week; GAPDH internal standard; average ± SEM
ANGPT1 mRNA = format: cell-based, human; settings: ascorbic acid alone; 1 week; GAPDH internal standard; average ± SEM

In the case of O=C1O[C@H]([C@@H](O)CO)C(O)=C1O [Ascorbic Acid, ascorbic acid], the “The Ratio of GAG to DNA” value [1] is reported as 5.88 ± 0.73, the “Ratio to Expression Level of IGF1 mRNA in Control Taken as 1” value (IGF1 mRNA) is reported as 8.92 ± 3.30 and the “Ratio to Expression Level of CSGALNACT1 mRNA in Control Taken as 1” value (CSGALNACT1 mRNA) is reported as 2.25 ± 0.55. The “Ratio to Expression Level of ANGPT1 mRNA in Control Taken as 1” value (ANGPT1 mRNA) was 3.80 ± 0.91.
